# Measured values published in patent US20240209028A1, “CNP COMPOUNDS” (priority 2022, published 2024).
# Where two headings read alike, the source gives them in different places. Starred links: 1 amine or outer side, 2 acyl side, 3 side chain; linkers in the order of their positions; H or OH if unused. Positions of bridges follow the written chain, without caps; N, C: chain ends. Residues, ends and D or L forms follow the SMILES beside them. *: point of attachment. C18 diacid = O=C(O)CCCCCCCCCCCCCCCCC(=O)*; γGlu = O=C(O)[C@H](CCC(=O)[*:2])N[*:1]; AEEA = NCCOCCOCC(=O)O
# Key:
# [1] = Solubility of CNP compounds at pH 4.0 and pH 6.5; format: physicochemical
# Method in brief: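 Supernatant peptide concentration was quantified by CAD after overnight room-temperature equilibration of incompletely dissolved samples. Nominal loading was ≥4000-5000 nmol/mL. Media were pH 4.0 sodium acetate 5 mM/glycerol 250 mM, or pH 6.5 sodium phosphate 8 mM/glycerol 23 mg/mL reached by stepwise NaOH addition.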
# [2] = molecular target: T1, human natriuretic peptide receptor 2 (hNPR2) (Homo sapiens, UniProt P20594); assay: In vitro hNPR2 activity assay (cGMP GloSensor reporter, HEK293); format: cell-based; settings: for hNPR2 0% HSA. [EC50% rel CNP]: potency relative to CNP22 (0065)
# T1 construct: expressed in transfected cells; host or cells: HEK293 (ATCC CRL-1573), clone 35, co-transfected with pGloSensor-42F
# T1 sequence (P20594 23-1047): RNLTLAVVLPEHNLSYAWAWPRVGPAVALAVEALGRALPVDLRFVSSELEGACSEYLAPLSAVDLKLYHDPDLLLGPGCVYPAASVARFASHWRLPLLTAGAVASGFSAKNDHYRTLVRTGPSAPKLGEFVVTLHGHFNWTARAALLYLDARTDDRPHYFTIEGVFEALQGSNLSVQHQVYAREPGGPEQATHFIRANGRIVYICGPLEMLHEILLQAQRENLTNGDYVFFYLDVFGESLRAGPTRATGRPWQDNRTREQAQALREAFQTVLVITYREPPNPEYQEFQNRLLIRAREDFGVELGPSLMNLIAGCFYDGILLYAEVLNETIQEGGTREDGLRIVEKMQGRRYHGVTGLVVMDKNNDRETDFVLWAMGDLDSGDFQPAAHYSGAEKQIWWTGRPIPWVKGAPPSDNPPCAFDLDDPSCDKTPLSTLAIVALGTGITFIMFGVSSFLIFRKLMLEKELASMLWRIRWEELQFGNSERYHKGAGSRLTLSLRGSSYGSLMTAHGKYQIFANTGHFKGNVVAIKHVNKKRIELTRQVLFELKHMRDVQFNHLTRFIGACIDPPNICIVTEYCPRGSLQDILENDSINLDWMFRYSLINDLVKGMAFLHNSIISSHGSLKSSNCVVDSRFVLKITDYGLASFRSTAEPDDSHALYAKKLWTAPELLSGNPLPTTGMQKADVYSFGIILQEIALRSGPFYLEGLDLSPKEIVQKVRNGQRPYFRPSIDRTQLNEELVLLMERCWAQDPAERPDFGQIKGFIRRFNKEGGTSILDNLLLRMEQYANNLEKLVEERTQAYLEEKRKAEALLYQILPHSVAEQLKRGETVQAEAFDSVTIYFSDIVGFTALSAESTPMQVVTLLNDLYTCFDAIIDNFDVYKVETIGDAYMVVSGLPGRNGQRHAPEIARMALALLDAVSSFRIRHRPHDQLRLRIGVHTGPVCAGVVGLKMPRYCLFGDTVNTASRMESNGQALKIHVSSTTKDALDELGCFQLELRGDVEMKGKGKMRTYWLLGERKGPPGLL
# Method in brief: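 Potency is the EC50 from a four-parameter logistic fit, also expressed relative to the in-plate CNP22 control (×100), with at least two replicates. Compounds (ten concentrations, […], HSA-free diluent with 1% OVA, 0.01% Tween20) were incubated 30 min at 37 °C on HEK293 cells co-expressing hNPR2 and a GloSensor cGMP luciferase. Luminescence detected with Bright-Glo.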
# [3] = 8 mM sodium phosphate, 23 mg/mL glycerol, pH 6.5, room temperature, read-out: Solubility at pH 6.5
SMILES,solubility ([1]; pH 6.5) [mM],"EC50 ([2]; 0% HSA, HEK293-hNPR2/GloSensor cells) [nM]",hNPR2 0% HSA. [EC50% rel CNP] [2] [%],"solubility ([1]; 5 mM sodium acetate, 250 mM glycerol, pH 4.0, room temperature, read-out: Solubility at pH 4.0) [mM]","solubility [1, 3] [mM]"
CC[C@H](C)[C@@H]1NC(=O)[C@H](CCCNC(=N)N)NC(=O)[C@H](CCC(=O)O)NC(=O)[C@H](CC(C)C)NC(=O)[C@@H]2CCCN2C(=O)[C@H](CC(C)C)NC(=O)CNC(=O)[C@H](Cc2ccccc2)NC(=O)[C@@H](NC(=O)CNC(=O)[C@H](CCC(N)=O)NC(=O)[C@H](CO)NC(=O)[C@H](CC(C)C)NC(=O)CNC(=O)[C@H](CCCCN)NC(=O)[C@H](CCCCN)NC(=O)[C@H](CCC(N)=O)NC(=O)[C@H](C)NC(=O)CNC(=O)[C@H](CCCCN)NC(=O)[C@H](Cc2ccc(O)cc2)NC(=O)[C@H](CCCCN)NC(=O)[C@H](CCCNC(=N)N)NC(=O)[C@H](C)NC(=O)COCCOCCNC(=O)COCCOCCNC(=O)COCCOCCNC(=O)COCCOCCNC(=O)CC[C@H](NC(=O)CC[C@H](NC(=O)CC[C@H](NC(=O)CC[C@H](NC(=O)CC[C@H](NC(=O)CCCCCCCCCCCCCCCCC(=O)O)C(=O)O)C(=O)O)C(=O)O)C(=O)O)C(=O)O)CSSC[C@@H](C(=O)O)NC(=O)CNC(=O)[C@H](CC(C)C)NC(=O)CNC(=O)[C@H](CO)NC(=O)[C@H](CC(C)C)NC(=O)[C@H](CO)NC(=O)CNC1=O [compound 1477] ({C18 diacid-γGlu-γGlu-γGlu-γGlu-γGlu-AEEA-AEEA-AEEA-AEEA}-ARKYKGAQKKGLSQGCFGLPLERIGSLSGLGC-OH; disulfide 16-32),5.35,0.13,10.3,–,–
CC[C@H](C)[C@@H]1NC(=O)[C@H](CCCNC(=N)N)NC(=O)[C@H](CC(=O)O)NC(=O)[C@H](CC(C)C)NC(=O)[C@@H]2CCCN2C(=O)[C@H](CC(C)C)NC(=O)CNC(=O)[C@H](Cc2ccccc2)NC(=O)[C@@H](NC(=O)CNC(=O)[C@H](CCC(N)=O)NC(=O)[C@H](CO)NC(=O)[C@H](CC(C)C)NC(=O)CNC(=O)[C@H](CCCCN)NC(=O)[C@H](CCCCN)NC(=O)[C@H](CCC(N)=O)NC(=O)[C@H](C)NC(=O)CNC(=O)[C@H](CCCCN)NC(=O)[C@H](Cc2ccc(O)cc2)NC(=O)COCCOCCNC(=O)COCCOCCNC(=O)COCCOCCNC(=O)COCCOCCNC(=O)CC[C@H](NC(=O)CC[C@H](NC(=O)CCCCCCCCCCCCCCCCC(=O)O)C(=O)O)C(=O)O)CSSC[C@@H](C(=O)O)NC(=O)CNC(=O)[C@H](CC(C)C)NC(=O)CNC(=O)[C@H](CO)NC(=O)[C@H](CC(C)C)NC(=O)[C@H](CO)NC(=O)CNC1=O [compound 1478] ({C18 diacid-γGlu-γGlu-AEEA-AEEA-AEEA-AEEA}-YKGAQKKGLSQGCFGLPLDRIGSLSGLGC-OH; disulfide 13-29; C-terminus assumed),–,–,26.6,6.51,2.18
CC[C@H](C)[C@@H]1NC(=O)[C@H](CCCNC(=N)N)NC(=O)[C@H](CC(=O)O)NC(=O)[C@H](CC(C)C)NC(=O)[C@@H]2CCCN2C(=O)[C@H](CC(C)C)NC(=O)CNC(=O)[C@H](Cc2ccccc2)NC(=O)[C@@H](NC(=O)CNC(=O)[C@H](CCC(N)=O)NC(=O)[C@H](CO)NC(=O)[C@H](CC(C)C)NC(=O)CNC(=O)[C@H](CCCCN)NC(=O)[C@H](CCCCN)NC(=O)[C@H](CCC(N)=O)NC(=O)[C@H](C)NC(=O)CNC(=O)[C@@H]2CCCN2C(=O)[C@H](C)NC(=O)[C@H](CCC(N)=O)NC(=O)CNC(=O)COCCOCCNC(=O)COCCOCCNC(=O)CC[C@H](NC(=O)CCCCCCCCCCCCCCCCC(=O)O)C(=O)O)CSSC[C@@H](C(=O)O)NC(=O)CNC(=O)[C@H](CC(C)C)NC(=O)CNC(=O)[C@H](CO)NC(=O)[C@H](CC(C)C)NC(=O)[C@H](CO)NC(=O)CNC1=O [compound 1484] ({C18 diacid-γGlu-AEEA-AEEA}-GQAPGAQKKGLSQGCFGLPLDRIGSLSGLGC-OH; disulfide 15-31; C-terminus assumed),–,–,27.9,–,2.33
